Assays:
[1] = test system: human hepatocellular carcinoma (HCC) cell lines (Hep3B, HepG2, SNU475, and Hep 40); assay: Assessment of apoptotic cell morphology (hematoxylin and eosin, light microscope); format: cell-based; conditions: 30 μM, six days exposure; all four HCC cell lines
Experimental: (§1) The activity of gallium maltolate and gallium nitrate was studied in vitro on several human hepatocellular carcinoma (HCC) cell lines (Hep3B, HepG2, SNU475, and Hep 40). Further information on these experiments is reported by Chua et al., Anticancer Research 26:1739-1744, 2006.
Assessment of apoptotic cell morphology: After six days exposure to gallium maltolate at either 10 μM or 30 μM, cells were fixed using absolute methanol at −20° C. for 10 min, then stained with hematoxylin and eosin. Cell morphology was then observed with a light microscope.

[2] = test system: poly(ADP-ribose) polymerase (PARP) in HCC cell lines; assay: Immunoblotting, PARP assay for apoptosis; format: cell-based, human; conditions: HCC cell lines Hep 3B, Hep 40, and SNU475; 10 μM or 30 μM, six days exposure
Experimental: as §1
(§2) Immunoblotting: Cells were exposed to 10 μM or 30 μM gallium maltolate for six days; whole cell lysates were then prepared and total protein quantified using the Bradford Assay. Approximately 20 μg of protein was electrophoresed on pre-cast gels and transferred onto PVDF membranes. Non-specific sites were blocked by incubation with 5% non-fat milk in TBS-1% Tween solution for 1 hr at room temperature. Proteins were then detected with specific antibodies against CD71 (transferrin receptor 1) or PARP at recommended dilutions, followed by appropriate HRP-conjugated secondary antibodies.

[3] = test system: CD71 (transferrin receptor 1) in HCC cell lines; assay: Immunoblotting, CD71 (transferrin receptor 1) protein level; format: cell-based, human; conditions: six-day exposure to 10 μM or 30 μM; all four HCC cell lines
Experimental: as §1, §2

## Cc1occc(=O)c1[O-].Cc1occc(=O)c1[O-].Cc1occc(=O)c1[O-].[Ga+3] [gallium maltolate, tris(3-hydroxy-2-methyl-4H-pyran-4-onato)gallium]
[1]
  cellular morphology (apoptosis): indicative of apoptosis
[2]
  poly(ADP-ribose) polymerase (PARP) assay for apoptosis: positive
[3]
  protein level of CD71 (transferrin receptor 1): dose-dependent increase

Reference: US8076371B2, “Gallium compositions for the treatment of liver cancer and methods of use” (priority 2006, dated 2011)
